Laboratory results: US10111847B2, “Compounds and methods for modulating vascular injury” (The Regents of the University of California, priority 2012, dated 2018)

How the values were obtained:
human sv-VSMCs = assay: PDGF-BB induced transwell migration of sv-VSMCs (Maresin-1); type: cell-based; settings: 1-100 nM; PDGF-BB 50 ng/ml; 15 hr
Experimental: MaR-1. VSMCs were serum starved for 1-2 days, then trypsinized and seeded in 8-μm-pore transwell inserts (Corning Glass Works, Corning, N.Y.) at a concentration of 30,000 cells per well. Cells were allowed to attach for 2 hr, then pretreated with Maresin-1 (1-100 nM) or vehicle (0.1% ethanol) control for 30 min before the addition of PDGF-BB (50 ng/ml; Sigma-Aldrich, St. Louis, Mo., USA) to the lower wells. 7S-Maresin-1 was added to both upper and lower wells for the full duration of chemotaxis experiment (15 hr). The membranes were fixed with methanol and cut out, mounted with DAPI, and migrated cells were counted under fluorescence microscope. Ten images per well were taken randomly under a 10× magnification and number of cells were counted in all the images to calculate mean for a given well.
VSMCs were pre-treated with vehicle or 7S-Maresin-1 for 30 min in a transwell insert before adding […] (50 ng/ml) to the outer chamber. Migrated VSMCs were fixed with methanol, stained with DAPI and counted under a fluorescent microscope.
FIGS. 20A-20D. Representative image of nine independent experiments. (A) Vehicle Control. (B) PDGF-BB, 50 ng/ml. (C) 7S-Maresin-1, 1 nm+PDGF-BB, 50 ng/ml. (D) 7S-Maresin-1, 100 nm+PDGF-BB, 50 ng/ml. (E) Graphical summary of nine independent experiments. P≤0.01, One-way ANOVA with Dunnett's post hoc test. *P<0.05 compared to […] (50 ng/ml). […]

inflammatory mediators = assay: Inflammation cytokine array of conditioned medium from sv-ECs; type: cell-based, human; settings: 100 nm, 30 min; TNF α 1 ng/ml 18 hrs
Experimental: Media was collected and incubated for 2 hr with the inflammation array membranes. The cells were harvested for protein estimation for normalization purposes. The membranes were washed following instruction protocol supplied by the manufacturer (Raybiotech Inc., Norcross, Ga.) and probed with biotinylated anti-cytokine antibody cocktail (provided by the manufacturer) for 2 hrs. The membranes were again washed with appropriate buffers provided by the manufacturer and incubated for 2 hrs with HRP-conjugated streptavidin, followed by chemiluminescence based detection of signal by Chemidoc (Biorad Inc.)
Inflammatory signals are amplified by autocrine and paracrine pathways that include the elaboration of pro-inflammatory mediators into the local extracellular milieu. Cells grown in 6 cm dish were serum starved for 24 hrs. The cells were then pre-treated with 100 nm 7S-Maresin-1 for 30 min followed by 18 hrs of TNF α (1 ng/ml). Cell culture media was collected and incubated with human inflammation cytokine array membranes (AAH-INF-3-4, Raybiotech Inc.), coated with antibodies (in duplicate) recognizing 40 different inflammatory mediators.
FIGS. 19A-19C. (A, B) Representative membrane images from a set of three pairs. (C) Densitometric quantitation of each of the attenuated inflammatory mediators in three independent experiments was performed and is represented in the bar graph. […]

VSMC = assay: TNF-α-induced superoxide production (DHE) in VSMC (RvD1); type: cell-based, human; settings: 10 and 100 nM; TNF-α 10 ng/ml 4 hours
Experimental: RvD1. Cells are seeded and grown on chamber slides at a density of 10,000 cells per chamber for 2 days, followed by treatment with 10 ng/ml TNF-α with or without RvD1 (10 and 100 nM) in serum-free media for 4 hours. After incubation cells are incubated with DHE (5 μmol/L, Invitrogen) in PBS for 30 minutes at 37° C. in a humidified chamber protected from light. DAPI nuclear counter staining is utilized. For frozen section 30-μm-thick sections are incubated with DHE (10 μmol/L) in PBS for 30 minutes at the same condition described above. Fluorescence was detected with TRITC filter allowing the detection of the DHE emission wavelength of 590-620 nm. The fluorescence lamp gain is standardized for all images and analyses. Fluorescence quantitation is performed using ImageJ analysis software (National Institute of Health, Bethesda, Md.). For VSMC the fluorescence intensity is determined for the DHE-stained control cells (no treatment control) from each experimental group and then individual treated cells from the same group are normalized to the corresponding value. For frozen sections the fluorescence intensity is determined for the DHE-stained control vessels (uninjured abdominal aorta) from each experimental group and then individual treated vessels from the same group are normalized to the corresponding value. […]

Row | Compound | PDGF-BB induced migration in human sv-VSMCs (human sv-VSMCs) | levels of multiple inflammatory mediators in conditioned medium from EC (inflammatory mediators) | TNF-α-induced superoxide production in VSMC (VSMC)
1 | CC/C=C\C/C=C\C[C@H](O)\C=C/C=C/C=C/[C@@H](O)C/C=C\CCC(=O)O [7S-Maresin-1, 7S,14R-dihydroxydocosa-4Z,8E,10Z,12Z,16Z,19Z-hexaenoic acid] | Dose-Dependently Attenuates | reduced | 
2 | CC/C=C\C[C@H](O)/C=C/C=C\C=C\C=C\[C@@H](O)[C@@H](O)C/C=C\CCC(=O)O [RvD1, Resolvin D1] |  |  | significantly reduced
